# Biological target: T1, human α1G T-type channels (Homo sapiens, UniProt O43497)
# T1 construct: expressed in transfected cells; host or cells: HEK 293
# Assay: T-type calcium channel block, whole cell patch clamp in HEK cells (α1G)
# Format: cell-based
# Details: HEK cells, patch clamp, mainly non-inactivated protocol; values above 10 μM shown as 10 μM, below 0.30 μM shown as 0.30 μM; read-out: T-type Calcium Channel Block α1G IC50
# Procedure: T-type calcium channel blocking activity was assayed in human embryonic kidney cells, HEK 293, stably transfected with the T-type calcium channel subunits. Briefly, cells were cultured in Dulbecco's modified eagle medium (DMEM) supplemented with 10% fetal bovine serum, 200 U/ml penicillin and 0.2 mg/ml streptomycin at 37° C. with 5% CO2. At 85% confluency cells were split with 0.25% trypsin/1 mM EDTA and plated at 10% confluency on glass coverslips. […] Fresh DMEM was supplied and the cells transferred to 28° C./5% CO2. Cells were incubated for 1 to 2 days prior to whole cell recording.
# Standard patch-clamp techniques were employed to identify blockers of T-type currents. Briefly, previously described HEK cell lines stably expressing human α1G, α1H and α1I T-type channels were used for all the recordings (passage #: 4-20, 37° C., 5% CO2). Whole cell patch clamp experiments were performed using an Axopatch 200B amplifier (Axon Instruments, Burlingame, Calif.) linked to a personal computer equipped with pCLAMP software. Data were analyzed using Clampfit (Axon Instruments) and SigmaPlot 4.0 (Jandel Scientific). To obtain T-type currents, plastic dishes containing semi-confluent cells were positioned on the stage of a ZEISS AXIOVERT S100 microscope after replacing the culture medium with external solution (see below). Whole-cell patches were obtained using pipettes (borosilicate glass with filament, O.D.: 1.5 mm, I.D.: 0.86 mm, 10 cm length), fabricated on a SUTTER P-97 puller with resistance values of ˜5 MΩ (see below for internal solution).
# In the non-inactivating protocol, the holding potential is set at −110 mV and with a pre-pulse at −100 mV for 1 second prior to the test pulse at −40 mV for 50 ms.
# Test compounds were dissolved in external solution, 0.1-0.01% DMSO. After ˜10 min rest, they were applied by gravity close to the cell using a WPI microfil tubing. The “non-inactivated” pre-pulse was used to examine the resting block of a compound. The “inactivated” protocol was employed to study voltage-dependent block. […] Values are shown in μM and values above 10 μM are simply represented as 10 μM.
# T1 sequence (O43497 whole entry): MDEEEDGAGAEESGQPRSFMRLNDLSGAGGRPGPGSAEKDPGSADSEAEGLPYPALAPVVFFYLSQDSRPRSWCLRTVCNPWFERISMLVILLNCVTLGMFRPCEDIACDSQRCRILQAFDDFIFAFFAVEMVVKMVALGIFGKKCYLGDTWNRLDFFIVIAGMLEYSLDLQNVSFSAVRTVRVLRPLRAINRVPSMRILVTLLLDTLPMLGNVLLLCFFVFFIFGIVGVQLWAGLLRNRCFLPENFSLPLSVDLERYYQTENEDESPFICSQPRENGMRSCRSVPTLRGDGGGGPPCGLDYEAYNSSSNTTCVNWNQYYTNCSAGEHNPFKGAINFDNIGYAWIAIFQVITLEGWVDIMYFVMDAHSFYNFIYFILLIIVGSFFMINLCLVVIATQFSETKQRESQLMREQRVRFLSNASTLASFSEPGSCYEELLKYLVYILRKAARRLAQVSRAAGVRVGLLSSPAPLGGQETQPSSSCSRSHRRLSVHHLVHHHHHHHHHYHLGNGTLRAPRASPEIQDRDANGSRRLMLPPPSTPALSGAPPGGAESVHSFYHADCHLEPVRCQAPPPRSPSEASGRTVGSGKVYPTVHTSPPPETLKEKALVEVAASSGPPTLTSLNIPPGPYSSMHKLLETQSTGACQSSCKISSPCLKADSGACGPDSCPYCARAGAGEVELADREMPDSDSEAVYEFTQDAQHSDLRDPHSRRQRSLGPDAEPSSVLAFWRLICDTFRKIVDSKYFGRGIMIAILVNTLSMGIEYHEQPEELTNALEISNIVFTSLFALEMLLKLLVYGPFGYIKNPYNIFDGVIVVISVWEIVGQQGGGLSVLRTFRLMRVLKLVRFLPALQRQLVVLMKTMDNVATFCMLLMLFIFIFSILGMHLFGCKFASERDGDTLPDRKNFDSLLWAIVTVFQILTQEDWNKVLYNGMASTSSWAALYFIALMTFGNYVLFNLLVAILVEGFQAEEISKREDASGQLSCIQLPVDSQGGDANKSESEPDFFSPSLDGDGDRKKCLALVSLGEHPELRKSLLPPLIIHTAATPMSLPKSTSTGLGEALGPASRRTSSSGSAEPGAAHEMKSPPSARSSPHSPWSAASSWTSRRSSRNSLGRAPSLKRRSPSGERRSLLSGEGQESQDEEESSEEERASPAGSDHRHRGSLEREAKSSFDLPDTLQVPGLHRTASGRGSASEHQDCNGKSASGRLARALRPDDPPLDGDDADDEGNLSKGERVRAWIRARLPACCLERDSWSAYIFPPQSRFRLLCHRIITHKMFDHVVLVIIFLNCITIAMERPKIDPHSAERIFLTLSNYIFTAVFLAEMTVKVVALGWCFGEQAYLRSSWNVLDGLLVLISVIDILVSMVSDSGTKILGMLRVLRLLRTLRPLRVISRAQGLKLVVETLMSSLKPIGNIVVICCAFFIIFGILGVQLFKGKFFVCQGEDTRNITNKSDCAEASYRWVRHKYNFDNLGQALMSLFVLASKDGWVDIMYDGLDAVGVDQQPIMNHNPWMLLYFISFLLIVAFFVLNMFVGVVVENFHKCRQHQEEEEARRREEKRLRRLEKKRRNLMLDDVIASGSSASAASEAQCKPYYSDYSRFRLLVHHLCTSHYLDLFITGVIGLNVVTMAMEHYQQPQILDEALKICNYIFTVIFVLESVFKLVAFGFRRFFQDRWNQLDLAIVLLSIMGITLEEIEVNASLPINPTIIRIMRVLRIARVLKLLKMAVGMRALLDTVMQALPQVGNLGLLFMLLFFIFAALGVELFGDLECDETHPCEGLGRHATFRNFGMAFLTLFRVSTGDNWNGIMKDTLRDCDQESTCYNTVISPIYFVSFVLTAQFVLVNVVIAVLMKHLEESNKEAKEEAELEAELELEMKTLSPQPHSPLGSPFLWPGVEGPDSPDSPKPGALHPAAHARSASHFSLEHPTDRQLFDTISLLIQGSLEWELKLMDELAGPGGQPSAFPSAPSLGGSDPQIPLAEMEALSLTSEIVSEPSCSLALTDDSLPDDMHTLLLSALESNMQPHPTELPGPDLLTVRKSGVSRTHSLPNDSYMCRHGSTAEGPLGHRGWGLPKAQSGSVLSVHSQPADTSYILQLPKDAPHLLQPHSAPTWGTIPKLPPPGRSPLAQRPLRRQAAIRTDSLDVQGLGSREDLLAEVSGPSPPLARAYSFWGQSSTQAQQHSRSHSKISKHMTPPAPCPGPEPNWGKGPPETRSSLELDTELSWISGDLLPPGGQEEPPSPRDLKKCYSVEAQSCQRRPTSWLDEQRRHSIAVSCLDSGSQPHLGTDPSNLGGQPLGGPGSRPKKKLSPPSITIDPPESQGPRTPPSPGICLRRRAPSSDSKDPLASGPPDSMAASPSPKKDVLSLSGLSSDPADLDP
row,IC50,Structure (SMILES)
1,> 10 µM,"CC(C)(C)OC(=O)NCCN1CCC(CNC(=O)c2cccc(S(C)(=O)=O)c2)CC1 [Compound 45, tert-butyl 2-(4-((3-(methylsulfonyl)benzamido)methyl)piperidin-1-yl)ethylcarbamate]"
2,> 10 µM,"CC(C)(C)OC(=O)NCCN1CCC(CNC(=O)c2ccc(F)cc2F)CC1 [Compound 51, tert-butyl 2-(4-((2,4-difluorobenzamido)methyl)piperidin-1-yl)ethylcarbamate]"
3,> 10 µM,"CC(C)(C)OC(=O)NCCN1CCC(CNC(=O)c2ccccc2C(F)(F)F)CC1 [Compound 53, tert-butyl 2-(4-((2-(trifluoromethyl)benzamido)methyl)piperidin-1-yl)ethylcarbamate]"
4,> 10 µM,"CC(C)(C)OC(=O)NCCN1CCC(CNC(=O)c2ccccc2OC(F)(F)F)CC1 [Compound 55, tert-butyl 2-(4-((2-(trifluoromethoxy)benzamido)methyl)piperidin-1-yl)ethylcarbamate]"
5,7.62 µM,"CC(C)(C)[C@H](O)C(=O)N1CCC(CNC(=O)c2cc(C(F)(F)F)cc(C(F)(F)F)c2)CC1 [Compound 76, (S)-N-((1-(2-hydroxy-3,3-dimethylbutanoyl)piperidin-4-yl)methyl)-3,5-bis(trifluoromethyl) benzamide]"
6,> 10 µM,"NC1(C(=O)N2CCC(CNC(=O)c3cc(C(F)(F)F)cc(C(F)(F)F)c3)CC2)CCCC1 [Compound 85, N-((1-(1-aminocyclopentanecarbonyl)piperidin-4-yl)methyl)-3,5-bis(trifluoromethyl) benzamide]"
7,> 10 µM,"NC1(C(=O)N2CCC(CNC(=O)c3cc(C(F)(F)F)cc(C(F)(F)F)c3)CC2)CCCCC1 [Compound 86, N-((1-(1-aminocyclohexanecarbonyl)piperidin-4-yl)methyl)-3,5-bis(trifluoromethyl) benzamide]"
8,4.27 µM,"CCC(O)(C(=O)N1CCC(CNC(=O)c2cc(C(F)(F)F)cc(C(F)(F)F)c2)CC1)C(C)(C)C (centres unmarked) [Compound 90, N-((1-(2-ethyl-2-hydroxy-3,3-dimethylbutanoyl)piperidin-4-yl)methyl)-3,5-bis(trifluoromethyl)benzamide]"
9,> 10 µM,"CC(C)(C)C(O)C(=O)N1CCC(CNC(=O)c2cc(C(F)(F)F)cc(C(F)(F)F)c2)CC1 (centres unmarked) [Compound 91, N-((1-(2-hydroxy-3,3-dimethylbutanoyl)piperidin-4-yl)methyl)-3,5-bis(trifluoromethyl)benzamide]"
10,6.71 µM,"CC(C)(O)C(=O)N1CCC(CC(=O)Nc2cc(C(F)(F)F)cc(C(F)(F)F)c2)CC1 [Compound 154, N-(3,5-bis(trifluoromethyl)phenyl)-2-(1-(2-hydroxy-2-methylpropanoyl)piperidin-4-yl)acetamide]"
11,> 10 µM,"CC(C)(C)C(O)CN1CCC(CC(=O)Nc2nc3ccccc3[nH]2)CC1 (centres unmarked) [Compound 166, N-(1H-benzo[d]imidazol-2-yl)-2-(1-(2-hydroxy-3,3-dimethylbutyl)piperidin-4-yl)acetamide]"
12,> 10 µM,"CC(C)(C)C(O)CN1CCC(CC(=O)NCc2cccc(OC(F)F)c2)CC1 (centres unmarked) [Compound 175, N-(3-(difluoromethoxy)benzyl)-2-(1-(2-hydroxy-3,3-dimethylbutyl)piperidin-4-yl)acetamide]"
13,> 10 µM,"CC(C)(C)C(O)CN1CCC(CC(=O)NCc2ccc3c(c2)CCO3)CC1 (centres unmarked) [Compound 176, N-((2,3-dihydrobenzofuran-5-yl)methyl)-2-(1-(2-hydroxy-3,3-dimethylbutyl)piperidin-4-yl)acetamide]"
14,> 10 µM,"CC(C)(C)C(O)CN1CCC(CC(=O)NCCc2ccc(F)cc2)CC1 (centres unmarked) [Compound 177, N-(4-fluorophenethyl)-2-(1-(2-hydroxy-3,3-dimethylbuyl)piperidin-4-yl)acetamide]"
15,> 10 µM,"NC1(C(=O)N2CCC(CC(=O)Nc3cc(C(F)(F)F)cc(C(F)(F)F)c3)CC2)CC1 [Compound 190, 2-(1-(1-aminocyclopropanecarbonyl)piperidin-4-yl)-N-(3,5-bis(trifluoromethyl)phenyl) acetamide]"
16,> 10 µM,"O=C(CC1CCN(C(=O)[C@H]2CCCN2)CC1)Nc1cc(C(F)(F)F)cc(C(F)(F)F)c1 [Compound 191, (R)-N-(3,5-bis(trifluoromethyl)phenyl)-2-(1-(pyrrolidine-2-carbonyl)piperidin-4-yl)acetamide]"

row,IC50,Structure (SMILES)
1,> 10 µM,"NC1(C(=O)N2CCC(CC(=O)Nc3cc(C(F)(F)F)cc(C(F)(F)F)c3)CC2)CCOCC1 [Compound 194, 2-(1-(4-aminotetrahydro-2H-pyran-4-carbonyl)piperidin-4-yl)-N-(3,5-bis(trifluoromethyl)phenyl)acetamide]"
2,> 10 µM,"CC(C)(C)OC(=O)NC(CN1CCC(CC(=O)NCCc2c[nH]c3ccccc23)CC1)C(C)(C)C (centres unmarked) [Compound 197, tert-butyl 1-(4-(2-(2-(1H-indol-3-yl)ethylamino)-2-oxoethyl)piperidin-1-yl)-3,3-dimethylbutan-2-ylcarbamate]"
3,> 10 µM,"CC(C)(C)C(N)CN1CCC(CC(=O)NCc2cc(Cl)cc(Cl)c2)CC1 (centres unmarked) [Compound 201, 2-(1-(2-amino-3,3-dimethylbutyl)piperidin-4-yl)-N-(3,5-dichlorobenzyl) acetamide]"
4,> 10 µM,"CC(C)S(=O)(=O)NC(CN1CCC(CC(=O)NCCc2c[nH]c3ccc(F)cc23)CC1)C(C)(C)C (centres unmarked) [Compound 206, 2-(1-(3,3-dimethyl-2-(1-methylethylsulfonamido)butyl)piperidin-4-yl)-N-(2-(5-fluoro-1H-3-yl)ethyl)acetamide]"
5,> 10 µM,"CC(C)(C)C(CN1CCC(CC(=O)NCc2cc(Cl)cc(Cl)c2)CC1)NS(C)(=O)=O (centres unmarked) [Compound 207, N-(3,5-dichhlorobenzyl)-2-(1-(3,3-dimethyl-2-(methylsulfonamido)butyl)piperidin-4-yl)acetamide]"
6,> 10 µM,"CCS(=O)(=O)NC(CN1CCC(CC(=O)NCc2cc(Cl)cc(Cl)c2)CC1)C(C)(C)C (centres unmarked) [Compound 208, N-(3,5-dichlorobenzyl)-2-(1-(2-(ethylsulfonamido)-3,3-dimethylbutyl)piperidin-4-yl)acetamide]"
7,8.6 µM,"CC(C)(C)C(CN1CCC(CC(=O)NCc2cc(Cl)cc(Cl)c2)CC1)NS(=O)(=O)C1CC1 (centres unmarked) [Compound 209, 2-(1-(2-(cyclopropanesulfonamido)-3,3-dimethylbutyl)piperidin-4-yl)-N-(3,5-dichlorobenzyl)acetamide]"
8,5.82 µM,"CC(C)(C)C(N)CN1CCC(CC(=O)NC(c2cccc(F)c2)c2cccc(F)c2)CC1 (centres unmarked) [Compound 217, 2-(1-(2-amino-3,3-dimethylbutyl)piperidin-4-yl)-N-(bis(3-fluorophenyl)methyl)acetamide]"
9,> 10 µM,"CC(C)(C)C(CN1CCC(CC(=O)NC(c2cccc(F)c2)c2cccc(F)c2)CC1)NS(C)(=O)=O (centres unmarked) [Compound 219, N-(bis(3-fluorophenyl)methyl)-2-(1-(3,3-dimethyl-2-(methylsulfonamido)butyl)piperidin-4-yl)acetamide]"
10,6.91 µM,"CCS(=O)(=O)NC(CN1CCC(CC(=O)NC(c2cccc(F)c2)c2cccc(F)c2)CC1)C(C)(C)C (centres unmarked) [Compound 220, N-(bis(3-fluorophenyl)methyl)-2-(1-(2-(ethylsulfonamido)-3,3-dimethylbutyl)piperidin-4-yl)acetamide]"
11,8.15 µM,"COC(=O)NC(CN1CCC(CC(=O)NCc2cc(Cl)cc(Cl)c2)CC1)C(C)(C)C (centres unmarked) [Compound 223, methyl 1-(4-(2-(3,5-dichlorobenzyl-amino)-2-oxoethyl)piperidin-1-yl)-3,3-dimethylbutan-2-ylcarbamate]"
12,> 10 µM,"N#CC1CCN(CC(=O)N2CCC(CNC(=O)c3cc(C(F)(F)F)cc(C(F)(F)F)c3)CC2)CC1 [Compound 259, N-((1-(2-(4-cyanopiperidin-1-yl)acetyl)piperidin-4-yl)methyl)-3,5-bis(trifluoromethyl)benzamide]"
13,> 10 µM,"O=C(NCC1CCN(C(=O)CNCCCN2CCOCC2)CC1)c1cc(F)cc(C(F)(F)F)c1 [Compound 270, 3-fluoro-N-((1-(2-(3-morpholinopropylamino)acetyl)piperidin-4-yl)methyl)-5-(trifluoromethyl)benzamide]"
14,> 10 µM,"COc1ccc(C(=O)NCC2CCN(CCNS(=O)(=O)C(F)(F)F)CC2)cc1OC [Compound 332, 3,4-dimethoxy-N-((1-(2-(trifluoromethylsulfonamido)ethyl)piperidin-4-yl)methyl)benzamide]"
15,< 0.3 µM,"O=C(NCC1CCN(CCNS(=O)(=O)C2CC2)CC1)c1cc(F)cc(Cl)c1 [Compound 390, 3-chloro-N-((1-(2-(cyclopropanesulfonamido)ethyl)piperidin-4-yl)methyl)-5-fluoro-benzamide]"

row,Structure (SMILES),IC50
1,"CC(C)(C)OC(=O)NCCN1CCC(CNC(=O)c2cccc(OC(C)(C)C)c2)CC1 [Compound 50, tert-butyl 2-(4-((3-tert-butoxybenzamido)methyl)piperidin-1-yl)ethylcarbamate]",8.97 µM
